The source of these data is patent US8981149B2, “Compounds modulating the hedgehog protein signaling pathway, marked forms thereof, and applications” (Centre National De La Recherche Scientifique, priority 2011, dated 2015).

One test has as its system PCGs of rat cerebellum. In words: Proliferation of granule cell precursors (PCGs) of rat cerebellum induced by SAG, 3H-thymidine incorporation. It counts as cell-based. The settings on record: for IC50: proliferation induced by SAG (0.01 μM), 3H-thymidine incorporation, read-out: IC50 ± SEM, PCGs of rat cerebellum (3). The protocol:
The granule cell precursors (GCP) are isolated from cerebellums of rats (IFFA-CREDO, France), 8 days after birth (P8). The cerebellums are taken, cut into small pieces, placed in Krebs-Ringer buffer (120 mM NaCl, 5 mM KCl, 1 mM KH2PO4, 25 mM NaHCO3, 15 mM glucose, 0.04 mM phenol red) and incubated for 15 minutes at room temperature in a dissociation buffer composed of Krebs-Ringer with addition of 250 mg/ml of trypsin (Sigma, France). Enzymatic dissociation is stopped by adding an equal volume of Krebs-Ringer buffer containing 250 mg/ml of a trypsin inhibitor and 80 mg/ml of DNase (Sigma, France). The tissue is centrifuged at 100 g for 10 seconds and the pellet obtained is resuspended and triturated using Pasteur pipettes of decreasing diameter to obtain a suspension of isolated cells. This suspension is centrifuged at 200 g for 5 minutes and the pellet obtained is resuspended in Neurobasal medium supplemented with 1 mM of pyruvate, 2 mM L-glutamine, penicillin/streptomycin and 1% of supplement N2, 60 mg/ml N-acetyl cysteine and […] of bovine serum albumin (BSA, Sigma, France).
The cerebellar GCPs obtained are transferred to 96-well plates treated beforehand with poly-D-lysine at a density of 2.10^5 cells/well. SAG in the presence or absence of the other test compounds is added immediately. 12 hours before the end of culture, tritiated thymidine (^3H-thymidine) is added. The cells are aspirated and recovered on a glass fiber filter (GF/C) using an automated cell collector (Brandel, USA). The amount of radioactivity incorporated by the cells was quantified in the presence of a scintillating agent in a liquid scintillation counter (Wallac, USA).
The cerebellar PCGs proliferate in response to activation of the Shh signalling pathway, a response that can be inhibited by the Smo antagonists (Rohatgi et al., 2009, Proc. Natl. Acad. Sci. USA 106: 3196-201). We therefore analyzed the capacity of compound (7d) for inhibiting the proliferation of the PCGs of rat cerebellum in primary culture by measuring the incorporation of tritiated thymidine, a marker of DNA newly synthesized during the proliferation process.
A general note: Dividing cells build labelled thymidine or BrdU into new DNA.

Test [1] addresses T1, human Smoothened receptor (Homo sapiens, UniProt Q99835).
T1 construct: expressed in transfected cells
The experiment in a line: Saturation of binding of 3H-(7d) to membranes of HEK-hSmo cells. The settings on record: read-out: Kd of specific binding. On the procedure:
(§1) The binding test is carried out on membranes enriched with Smoothened receptor. Cells of the HEK-hSmo line were used for preparing these membranes. The cells are washed and recovered in iced PBS. After centrifugation at 100 g for 7 minutes at 4° C., the pellet is taken up in 10 times its volume of an iced buffer A (50 mM HEPES, pH 7.4, 1 mM EDTA) with addition of 10 μl of a cocktail of protease inhibitors (PEAK, Sigma) per ml of buffer, then it is homogenized using a Polytron grinding mill. After centrifugation at 500 g for 30 minutes at 4° C., which makes it possible to remove the nuclei from the cells, the supernatant is centrifuged again at 48 000 g for 45 min at 4° C. The pellet is taken up in 2 ml of buffer A with PEAK added, then the suspension is homogenized using a glass conical grinding mill and is passed through a 23 G needle. Finally, aliquots are placed in Eppendorf tubes and stored at −80° C. The concentration of total protein in the preparation is determined by Lowry's method using BSA for preparing the standard range. This concentration is 10.9 mg/ml.
The membranes are resuspended in a buffer (50 mM HEPES and 3 mM MgCl2) containing 0.2% of BSA. The tests of binding of ^3H-(7d) are carried out in polypropylene tubes. […] The radioactivity retained on the filter is measured in the presence of 3 ml of scintillating agent in a liquid scintillation counter. […]

A further test addresses T2, human Smo receptor (Homo sapiens, UniProt Q99835).
T2 construct: expressed in transfected cells
The experiment in a line: Competition with bodipy-cyclopamine (BC) binding in HEK-hSmo cells. On the procedure: Cells of the HEK293 line stably transfected with the human Smo receptor are used. The experiment was conducted according to the protocol described in Roudaut et al., Mol. Pharmacol. 79: 453-460, 2011.
At the end of the incubation, the cells are fixed and stained with DAPI, a fluorescent molecule with high affinity for DNA which makes it possible to visualize the nuclei in blue in fluorescence microscopy.

For test [2], the target named is T1, human Smoothened receptor. In words: Inhibition of binding of 3H-(7d) to membranes of HEK-hSmo cells. The settings on record: HEK-hSmo membranes. The protocol: as §1, with “range.” for “range. This concentration is 10.9 mg/ml.”
The membranes are resuspended in a buffer (50 mM HEPES and 3 mM MgCl2) containing 0.2% of BSA. The tests of binding of ^3H-(7d) are carried out in polypropylene tubes. The membranes (2 μg of proteins) are incubated with the ^3H-(7d) in the presence or absence of the cold test compounds for 3 hours at 37° C. in a final volume of 400 μl. Incubation is stopped by immersing the tubes in iced water followed by rapid filtration (Brandel) through a glass fiber filtration membrane (GF/C) treated beforehand with 0.3% of polyethylenimine, which can reduce the nonspecific binding of the ^3H-(7d) to the filtration membrane. The radioactivity retained on the filter is measured in the presence of 3 ml of scintillating agent in a liquid scintillation counter.
In this experiment, the cold ligand competes with the radioactive ligand for binding to the receptor, and the affinity (Ki) of each cold ligand for the receptor can be analyzed based on the IC50 values deduced from the inhibition curves.

Read-outs that look alike come from different tables or passages of the source.

T1 sequence (Q99835 28-787): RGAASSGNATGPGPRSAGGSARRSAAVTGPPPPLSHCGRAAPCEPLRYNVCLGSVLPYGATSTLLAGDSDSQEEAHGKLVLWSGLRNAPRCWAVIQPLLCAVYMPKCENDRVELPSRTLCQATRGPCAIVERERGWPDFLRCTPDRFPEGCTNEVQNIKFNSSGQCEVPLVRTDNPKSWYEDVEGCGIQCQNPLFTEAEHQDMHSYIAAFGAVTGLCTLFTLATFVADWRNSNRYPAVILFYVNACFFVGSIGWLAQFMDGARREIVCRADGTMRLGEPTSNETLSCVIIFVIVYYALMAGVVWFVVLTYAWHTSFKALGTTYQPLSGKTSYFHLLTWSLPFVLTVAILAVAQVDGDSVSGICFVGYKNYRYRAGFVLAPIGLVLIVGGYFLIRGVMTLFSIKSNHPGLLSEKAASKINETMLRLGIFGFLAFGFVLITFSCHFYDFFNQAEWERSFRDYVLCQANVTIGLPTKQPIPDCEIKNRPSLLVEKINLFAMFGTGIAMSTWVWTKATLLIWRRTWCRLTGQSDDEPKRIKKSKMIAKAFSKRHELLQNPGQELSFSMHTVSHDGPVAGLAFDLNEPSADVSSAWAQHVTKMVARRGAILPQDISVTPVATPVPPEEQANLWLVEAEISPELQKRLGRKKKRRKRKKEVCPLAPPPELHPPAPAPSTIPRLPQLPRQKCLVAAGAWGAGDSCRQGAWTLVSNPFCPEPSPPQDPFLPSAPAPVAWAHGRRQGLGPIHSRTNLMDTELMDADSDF
T2 sequence (Q99835 28-787): as above

As a reminder, the IC50 is the concentration that inhibits the measured activity by half. As usually defined, the Kd is the concentration at which binding is half-saturated. For orientation: Ki means the dissociation constant of the complex between target and ligand, obtained from inhibition or displacement. As to `COc1cc(C(=O)NC(=N)Nc2ccc(C)c(NC(=O)c3ccc(CCc4ccccc4)cc3)c2)cc(OC)c1OC.Cl` [Compound 7d, 3,4,5-trimethoxy-N—(N-(4-methyl-3-(4-phenethylbenzamido)phenyl)carbamimidoyl)benzamide hydrochloride], the IC50 in the test with PCGs of rat cerebellum (Rattus norvegicus) was found to be 0.45 nM; with PCGs of rat cerebellum (hydrochloride), 0.4 ± 0.1 nM; at human Smo receptor (bodipy-cyclopamine (5 nM), HEK-hSmo cells, read-out: IC50 ± SEM, BC binding (4)), 8 ± 1 nM; in test [2] (0.35 nM 3H-(7d), 3 hours at 37° C., read-out: IC50 ± SEM, binding of compound 3H-(7d)), 1.5 nM. In addition, the “Type of antagonism on proliferation of PCGs” value with PCGs of rat cerebellum (induced by SAG (0.01 μM)) is listed as “complete antagonist”. The Kd in test [1] amounted to 0.3 nM. Besides, the “Block of the binding of BC to HEK-hSmo cells, in words” value on human Smo receptor (BC 5 nM, 2 hours) was “very similar and high”. Moreover, in test [2] (calculated from IC50, read-out: Ki ± SEM, binding of compound 3H-(7d)), the Ki was 0.7 ± 0.1 nM.
